# Assay results taken from US11426397B2, “Piperidinyl- and piperazinyl-substituted heteroaromatic carboxamides as modulators of GPR6” (TAKEDA PHARMACEUTICAL COMPANY LIMITED, priority 2017, dated 2022).
# Target: T1, GPR6 receptor expressed in CHO-K1 cells (Homo sapiens, UniProt P46095)
# T1 construct: expressed in transfected cells
# Test: In vitro inhibition of cAMP (EC50), cell-based HTRF cAMP assay
# Details: inhibition of constitutive cAMP activity of GPR6 in CHO-K1 cells
# Procedure: I. In Vitro Inhibition of cAMP (EC50)
# This cell based assay measures the ability of test compounds to inhibit the constitutive cAMP activity of GPR6 receptor expressed in CHO-K1 cells. CHO cells are stably expressed with GPR6 receptor, whose expression is controlled by a tetracycline inducible element. The cells were cultured in medium containing F12K, 10% FBS, 1% Penn/Strep, 200 μg/mL Hygromycin. GPR6 receptor expression is induced for 20 hours with 2 μg/mL doxycycline (Sigma D9891) in growth media. After addition of doxycycline, the cells are plated at a density of 450-750 cells per well in 96-well half-volume black tissue culture plates (Costar) and placed in an incubator (37° C., 5% CO2) for 20 hours prior to cAMP assays.
# Culture media is removed from the cells and they are washed with 50 μL/well of Ringer's Buffer (MgCl2 0.047 mg/mL, NaH2PO4 0.18 mg/mL, Na2HPO4 0.1 mg/mL, KCl 0.34 mg/mL, NaHCO3 1.26 mg/mL, D-glucose 1.8 mg/mL, NaCl 7 mg/mL; pH=7.4). The test compounds are suspended in DMSO, diluted in Ringer's Buffer containing 0.5% fatty acid free BSA plus 300 μM IBMX, and incubated on the cells for 45 minutes at 37° C. and 5% CO2. After incubation, the cells are conditioned for 10 minutes at room temp with Eu-cAMP tracer solution from a Perkin Elmer Lance HTRF Ultra cAMP assay kit (TRF0263). Then ULight™-anti-cAMP solution from the Lance HTRF kit is added and incubated on a shaker at room temp for 1 hour prior to HTRF detection in a Perkin Elmer Envision plate reader. EC50 curves are generated with a four-parameter logistic equation using GraphPad Prism 5.03.
# Table 1 lists biological assay data (in vitro inhibition of cAMP) for some of the compounds shown in the examples, where larger pEC50 values represent higher activity or potency. All of the compounds shown in Table 1 were tested in accordance with a cell-based assay which measures the ability of test compounds to inhibit the constitutive cAMP activity of GPR6 receptor expressed in CHO-K1 cells (reported as pEC50). The assay is described in the specification under the heading “In vitro inhibition of cAMP (EC50).”
# T1 sequence (P46095 whole entry): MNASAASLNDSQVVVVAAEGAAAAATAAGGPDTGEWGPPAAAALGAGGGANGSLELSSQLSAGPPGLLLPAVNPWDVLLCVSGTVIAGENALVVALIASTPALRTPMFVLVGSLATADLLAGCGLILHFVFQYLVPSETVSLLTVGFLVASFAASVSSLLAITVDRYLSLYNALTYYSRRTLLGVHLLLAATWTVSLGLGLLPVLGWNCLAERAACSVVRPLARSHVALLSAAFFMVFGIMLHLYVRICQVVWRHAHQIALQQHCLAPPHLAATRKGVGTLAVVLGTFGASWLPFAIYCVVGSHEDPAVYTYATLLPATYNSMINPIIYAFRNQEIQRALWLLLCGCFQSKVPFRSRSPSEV
row,Compound,"pEC50, in vitro inhibition of cAMP"
1,"COc1ncccc1C(=O)Nc1cc(CO)cnc1N1CCC(Oc2ccc(F)cc2F)CC1 [Example 34, N-(2-(4-(2,4-difluorophenoxy)piperidin-1-yl)-5-(hydroxymethyl)pyridin-3-yl)-2-methoxynicotinamide]",7.0
2,"Cn1cccc(C(=O)Nc2cc(C#N)ccc2N2CCC(Oc3cccc(F)c3F)CC2)c1=O [Example 9, N-(5-cyano-2-(4-(2,3-difluorophenoxy)piperidin-1-yl)phenyl)-1-methyl-2-oxo-1,2-dihydropyridine-3-carboxamide]",6.1
3,"COc1nn(C)cc1C(=O)Nc1cc(C)cnc1N1CCN(Cc2ccc(C#N)c(F)c2)CC1 [Example 102, N-(2-(4-(4-cyano-3-fluorobenzyl)piperazin-1-yl)-5-methylpyridin-3-yl)-3-methoxy-1-methyl-1H-pyrazole-4-carboxamide]",6.1
4,"COCc1cnc(N2CCN(Cc3ccc(F)cc3F)CC2)c(NC(=O)c2cccnc2OC)c1 [Example 33, N-(2-(4-(2,4-difluorobenzyl)piperazin-1-yl)-5-(methoxymethyl)pyridin-3-yl)-2-methoxynicotinamide]",7.2
5,"Cn1cccc(C(=O)Nc2cc(C#N)cnc2N2CCC(Oc3ccc(F)cc3F)CC2)c1=O [Example 58, N-(5-cyano-2-(4-(2,4-difluorophenoxy)piperidin-1-yl)pyridin-3-yl)-1-methyl-2-oxo-1,2-dihydropyridine-3-carboxamide]",7.4
6,"COc1nn(C)cc1C(=O)Nc1cnc(C)cc1N1CCC(S(=O)(=O)c2ccc(F)cc2F)CC1 [Example 99, N-(4-(4-((2,4-difluorophenyl)sulfonyl)piperidin-1-yl)-6-methylpyridin-3-yl)-3-methoxy-1-methyl-1H-pyrazole-4-carboxamide]",6.1
7,"Cc1cccnc1C(=O)Nc1cc(C#N)cnc1N1CCC(Oc2ccc(F)cc2F)CC1 [Example 59, N-(5-cyano-2-(4-(2,4-difluorophenoxy)piperidin-1-yl)pyridin-3-yl)-3-methylpicolinamide]",7.3
8,"Cn1cccc(C(=O)Nc2cc(C#N)ccc2N2CCC(Oc3cccc(F)c3)CC2)c1=O [Example 12, N-(5-cyano-2-(4-(3-fluorophenoxy)piperidin-1-yl)phenyl)-1-methyl-2-oxo-1,2-dihydropyridine-3-carboxamide]",6.4
9,"COc1ccc(OC2CCN(c3ccc(C#N)cc3NC(=O)c3cccn(C)c3=O)CC2)c(F)c1 [Example 29, N-(5-cyano-2-(4-(2-fluoro-4-methoxyphenoxy)piperidin-1-yl)phenyl)-1-methyl-2-oxo-1,2-dihydropyridine-3-carboxamide]",7.3
10,"COc1ccc(C(=O)C2CCN(c3ccc(C#N)cc3NC(=O)c3cccn(C)c3=O)CC2)c(F)c1 [Example 81, N-(5-cyano-2-(4-(2-fluoro-4-methoxybenzoyl)piperidin-1-yl)phenyl)-1-methyl-2-oxo-1,2-dihydropyridine-3-carboxamide]",6.9
11,COc1c(F)cccc1C(=O)Nc1cc(S(C)(=O)=O)ccc1N1CCC(Oc2ccc(F)cc2F)CC1 [Example 10],6.9
12,"COc1nc(C)ccc1C(=O)Nc1cnc(C)nc1N1CCC(Oc2ccc(F)cc2F)CC1 [Example 74, N-(4-(4-(2,4-difluorophenoxy)piperidin-1-yl)-2-methylpyrimidin-5-yl)-2-methoxy-6-methylnicotinamide]",7.1
13,"COc1cccc(S(=O)(=O)C2CCN(c3ccc(C#N)cc3NC(=O)c3cn(C)nc3OC)CC2)c1 [Example 98, N-(5-cyano-2-(4-((3-methoxyphenyl)sulfonyl)piperidin-1-yl)phenyl)-3-methoxy-1-methyl-1H-pyrazole-4-carboxamide]",6.4
14,"COc1nc(C)ccc1C(=O)Nc1cc(C#N)c(F)cc1N1CCC(Oc2ccc(F)cc2F)CC1 [Example 39, N-(5-cyano-2-(4-(2,4-difluorophenoxy)piperidin-1-yl)-4-fluorphenyl)-2-methoxy-6-methylnicotinamide]",7.3

# The remaining lines, values ahead:
row,"pEC50, in vitro inhibition of cAMP",Compound
1,6.6,"Cc1ccc(C(=O)Nc2cc(C#N)ccc2N2CCC(Oc3ccc(F)cc3F)CC2)nn1 [Example 146, N-(5-cyano-2-(4-(2,4-difluorophenoxy)piperidin-1-yl)phenyl)-6-methylpyridazine-3-carboxamide]"
2,5.8,"COc1c(F)ccc(F)c1C(=O)Nc1cc(C#N)ccc1N1CCC(Oc2ccc(F)cc2F)CC1 [Example 189, N-(5-cyano-2-(4-(2,4-difluorophenoxy)piperidin-1-yl)phenyl)-3,6-difluoro-2-methoxybenzamide]"
3,6.9,"COc1ncccc1C(=O)Nc1cnc(C#N)cc1N1CCC(Oc2ccc(F)cc2F)CC1 [Example 270, N-(6-cyano-4-(4-(2,4-difluorophenoxy)piperidin-1-yl)pyridin-3-yl)-2-methoxynicotinamide]"
4,6.7,"Cc1cccn2c(=O)c(C(=O)Nc3cc(C#N)ccc3N3CCC(Oc4ccc(F)cc4F)CC3)cnc12 [Example 197, N-(5-cyano-2-(4-(2,4-difluorophenoxy)piperidin-1-yl)phenyl)-9-methyl-4-oxo-4H-pyrido[1,2-a]pyrimidine-3-carboxamide]"
5,6.8,COc1nc(C(F)(F)F)ccc1C(=O)Nc1cc(C#N)ccc1N1CCC(Oc2ccc(F)cc2F)CC1 [Example 213]
6,7.3,COc1cc(F)c(F)cc1C(=O)Nc1cc(C#N)ccc1N1CCC(Oc2ccc(F)cc2F)CC1 [Example 229]
7,<4.5,"COc1ccnc(C(=O)Nc2cc(C#N)ccc2N2CCC(Oc3ccc(F)cc3F)CC2)n1 [Example 138, N-(5-cyano-2-(4-(2,4-difluorophenoxy)piperidin-1-yl)phenyl)-4-methoxypyrimidine-2-carboxamide]"
8,5.8,"N#Cc1ccc(N2CCC(Oc3ccc(F)cc3F)CC2)c(NC(=O)c2cccn(C3CCCCC3)c2=O)c1 [Example 180, N-(5-cyano-2-(4-(2,4-difluorophenoxy)piperidin-1-yl)phenyl)-1-cyclohexyl-2-oxo-1,2-dihydropyridine-3-carboxamide]"
9,6.8,"Cc1csc2ncc(C(=O)Nc3cc(C#N)ccc3N3CCC(Oc4ccc(F)cc4F)CC3)c(=O)n12 [Example 218, N-(5-cyano-2-(4-(2,4-difluorophenoxy)piperidin-1-yl)phenyl)-3-methyl-5-oxo-5H-thiazolo[3,2-a]pyrimidine-6-carboxamide]"
10,6.7,"COc1nc2c(cc1C(=O)Nc1cc(C#N)ccc1N1CCC(Oc3ccc(F)cc3F)CC1)CCC2 [Example 196, N-(5-cyano-2-(4-(2,4-difluorophenoxy)piperidin-1-yl)phenyl)-2-methoxy-6,7-dihydro-5H-cyclopenta[b]pyridine-3-carboxamide]"
11,6.9,"COc1ncccc1C(=O)Nc1cc(C#N)ccc1N1CCN(Cc2ccccc2F)CC1 [Example 239, N-(5-cyano-2-(4-(2-fluorobenzyl)piperazin-1-yl)phenyl)-2-methoxynicotinamide]"
12,7.1,"COc1cc(C)ccc1C(=O)Nc1cc(C#N)ccc1N1CCC(Oc2ccc(F)cc2F)CC1 [Example 236, N-(5-cyano-2-(4-(2,4-difluorophenoxy)piperidin-1-yl)phenyl)-2-methoxy-4-methylbenzamide]"
